# From patent US9067898B1, “Isothiazole derivatives as GPR120 agonists for the treatment of type II diabetes” (Janssen Pharmaceutica NV, priority 2014, dated 2015)
# Legend:
# Assay type in all cases: cell-based
# Human GPR120 short form = target: T1, Human GPR120 short form (Homo sapiens, UniProt Q5NUL3); experiment: Human GPR120 calcium flux assay (FLIPR), Procedure Calcium B; conditions: HEK-293 cells expressing human GPR120 short form, 4200 cells/well; read-out: GPR120 Ca2+ Assay B EC50
# T1 construct: expressed in transfected cells
# T1 sequence (Q5NUL3 1-361): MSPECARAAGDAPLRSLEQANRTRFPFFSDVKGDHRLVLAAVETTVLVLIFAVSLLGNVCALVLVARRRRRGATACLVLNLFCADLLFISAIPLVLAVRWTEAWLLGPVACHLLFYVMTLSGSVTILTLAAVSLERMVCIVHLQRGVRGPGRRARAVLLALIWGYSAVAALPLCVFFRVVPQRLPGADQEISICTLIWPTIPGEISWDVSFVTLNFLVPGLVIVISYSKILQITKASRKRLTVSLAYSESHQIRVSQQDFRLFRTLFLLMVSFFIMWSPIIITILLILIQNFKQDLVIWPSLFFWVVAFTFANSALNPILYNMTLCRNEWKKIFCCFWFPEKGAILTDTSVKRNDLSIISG
# Excerpt: This in vitro assay serves to assess test compound agonist activity against the short splice variant (SVS with Accession number NM_001195755.1 confirmed by sequencing data) of the GPR120 receptor. The Human Short splice variant #2 (NM_001195755.1) is missing an in-frame coding exon compared to variant 1 (the Human Long splice variant NM_181745.3), resulting in a shorter isoform (GPR120-S) lacking a 16 aa protein segment compared to isoform GPR120-L. The assay platform utilizes HEK-293 cells stably transfected to express the Human GPR120 short form. These cells are first loaded with the Ca^+2 sensitive dye, Fluo-4 NW. Upon stimulation, intracellular released Ca^+2 can bind to the dye and alter its fluorescence intensity. This increase in fluorescence signal, and thus the flux in intracellular [Ca^2+], is detected and quantitated by fluorescence imaging using a FLIPR reader. The effect of the agonist is measured as a function of concentration and used to calculate an EC50 based upon a response curve.
# In this procedure 4200 cells/well were employed.
# A Human GPR120 clone (Genbank accession number NM_001195755.1) was placed into the pcDNA3.1 mammalian expression vector carrying the neomycin resistance gene. A stable mammalian cell was generated by placing the above clone into a HEK293 background. Clonal cells responding to long chain fatty acids had expression levels of GPR120 confirmed by RT-qPCR. Human HEK-GPR120 cells were cultured in Dulbecco's Modified Eagle's Medium (DMEM)/F12 medium supplemented with 10% fetal bovine serum (FBS), 1% L-Glutamine and 1% penicillin/streptomycin and 0.5 mg/ml G-418. Cells were split 2 times a week to keep the cells in the log-phase growth.
# In preparation for the assay, HEK cells stably transfected with Human GPR120 (2.5K cells per well in 25 uL growth medium) were seeded into 384-well plates and then incubated overnight (37° C., 5% CO2). The next day, the media was changed to 20 μL assay buffer and the cell starved for 1 h at 37° C. The dye loading solution (2× dye) was prepared using 10 mL assay buffer, 100 μL of 250 mM probenecid, 1 bottle of Component A, and 20 μl of dye in DMSO. Twenty μL of the 2× dye loading buffer was then added to each well. The plates were incubated at 37° C. for 30 min, then at room temperature for an additional 15 minutes, before performing the assay on FLIPR. Test compounds were prepared in assay buffer (2 uL of cpd+198 uL assay buffer, final DMSO in assay plate is 0.2%) at the desired concentration, more particularly at 100, 50, 25, 12.5, 6.25, 3.125, 1.562, 0.781, 0.391, 0.195, 0.098, 0.049, 0.024 and 0.012 μM.
# The assay was performed on a FLIPR plate reader using the following parameters. Baseline was read for 10 seconds at 1 sec intervals. The program was set to transfer 10 μL of ligand from compound plate to cell plate after baseline reading. Aspiration was executed at: 10 μL/sec speed, 4.6 μL height; Dispensing was executed at: 30 μL/sec speed, 45 μL height. After compound addition, each well was read for 300 sec, with measurements collected at 1 sec intervals.
# The kinetic data from the FLIPR was based upon a 5 minute window for data collection. The fluorescence of each sample well was used for individual calculations of a normalized RFU value, which was defined as maximum response minus the minimum response. The normalized fluorescence reading (RFU) was calculated as follows: RFU=Fmax−Fmin The data were fitted to a sigmoidal dose-response curve with a variable Hill slope (<2) using nonlinear regression with GraphPad Prism 5.0 to calculate the EC50 values. The Fitting Equation was: Y=Bottom+(Top−Bottom)/(1+10^((Log EC50−X)*HillSlope)), where X is the log of the concentration and Y is the response.
# [1] = target: T2, short form of the GPR120 receptor (GPR120S) (Homo sapiens, UniProt Q5NUL3); experiment: Human GPR120 DiscoveRx PathHunter Beta-Arrestin assay, Procedure β-arrestin B; conditions: PathHunter CHO-K1 GPR120S β-Arrestin cell line, 5000 cells/well, read-out: hGPR120 β-arrestin B EC50
# T2 construct: host or cells: PathHunter CHO-K1 GPR120S β-Arrestin Cell Line
# Procedure, shortened: (§1)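 PathHunter CHO-K1 β-arrestin cells expressed long-form GPR120 (Procedure A, 3000 cells/well) or short-form GPR120 (Procedure B, 5000 cells/well). Compounds were serially diluted from 25 µM and incubated 90 min at 37 °C in HBSS/20 mM HEPES/0.1% BSA, pH 7.4. Luminescence was read after 60 min detection at RT; EC50 comes from % activity versus positive control, Hill slope fixed at 1.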
# [2] = target: T3, long form of human GPR120 (Homo sapiens, UniProt Q5NUL3); experiment: Human GPR120 DiscoveRx PathHunter Beta-Arrestin assay, Procedure β-arrestin A; conditions: PathHunter CHO-K1 GPR120 β-Arrestin cell line, 3000 cells per well, read-out: hGPR120 β-arrestin A EC50
# T3 construct: host or cells: PathHunter CHO-K1 GPR120 β-Arrestin Cell Line
# Procedure, shortened: as §1
# T2 sequence (P32121 whole entry partner, one chain of several): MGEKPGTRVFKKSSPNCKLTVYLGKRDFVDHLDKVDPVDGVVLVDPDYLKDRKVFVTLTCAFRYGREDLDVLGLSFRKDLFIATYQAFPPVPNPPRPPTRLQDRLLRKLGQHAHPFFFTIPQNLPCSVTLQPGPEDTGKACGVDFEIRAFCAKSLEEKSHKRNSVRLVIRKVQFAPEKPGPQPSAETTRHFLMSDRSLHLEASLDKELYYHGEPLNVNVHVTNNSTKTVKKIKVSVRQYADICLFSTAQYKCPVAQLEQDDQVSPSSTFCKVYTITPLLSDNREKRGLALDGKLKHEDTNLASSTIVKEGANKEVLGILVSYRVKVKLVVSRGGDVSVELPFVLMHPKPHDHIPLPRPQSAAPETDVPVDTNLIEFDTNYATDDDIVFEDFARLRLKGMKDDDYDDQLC
# T3 sequence (Q5NUL3 1-377 isoform Q5NUL3-1): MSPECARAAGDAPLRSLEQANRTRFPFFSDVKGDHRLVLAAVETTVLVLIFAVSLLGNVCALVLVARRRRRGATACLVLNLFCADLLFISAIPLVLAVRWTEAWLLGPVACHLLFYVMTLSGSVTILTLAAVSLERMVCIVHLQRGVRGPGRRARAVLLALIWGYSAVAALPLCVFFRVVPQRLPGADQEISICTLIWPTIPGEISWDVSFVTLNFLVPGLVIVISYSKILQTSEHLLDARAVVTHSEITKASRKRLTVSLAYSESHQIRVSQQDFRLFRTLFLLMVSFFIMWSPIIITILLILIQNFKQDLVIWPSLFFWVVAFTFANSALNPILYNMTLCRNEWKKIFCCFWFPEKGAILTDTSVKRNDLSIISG
# T3 sequence (P32121 whole entry partner): as the sequence (P32121 whole entry partner, one chain of several) above
SMILES,EC50 (Human GPR120 short form) [µM],EC50 [1] [µM],EC50 [2] [µM]
"Cc1cc(OCc2c(-c3ccc(Cl)cc3)nsc2C(F)(F)F)c(F)cc1CCCO [Cpd 63, 3-(4-((3-(4-chlorophenyl)-5-(trifluoromethyl)isothiazol-4-yl)methoxy)-5-fluoro-2-methylphenyl)propan-1-61]",0.2,0.122,–
"Cc1ccc(-c2snc(Cl)c2COc2c(F)cc(CCC(=O)O)cc2F)c(F)c1 [Cpd 252, 3-(4-{[3-Chloro-5-(2-fluoro-4-methylphenyl)isothiazol-4-yl]methoxy}-3,5-difluorophenyl)propanoic acid]",0.045,–,0.191
"N#Cc1ccc(-c2nsc(C(F)(F)F)c2COc2c(F)cc(CCC(=O)O)cc2F)cc1 [Cpd 261, 3-(4-{[3-(4-Cyanophenyl)-5-(trifluoromethyl)isothiazol-4-yl]methoxy}-3,5-difluorophenyl)propanoic acid]",0.672,0.332,–
"OCCCc1cc(F)c(OCc2c(-c3ccc(Cl)cc3F)nsc2C(F)(F)F)c(F)c1 [Cpd 262, 3-(4-{[3-(4-Chloro-2-fluorophenyl)-5-(trifluoromethyl)isothiazol-4-yl]methoxy}-3,5-difluorophenyl)propan-1-ol]",0.139,0.08,–
"Cc1c(CCC(=O)O)ccc(OCc2c(-c3ccc(C#N)cc3)nsc2C(F)(F)F)c1C [Cpd 264, 3-(4-{[3-(4-Cyanophenyl)-5-(trifluoromethyl)isothiazol-4-yl]methoxy}-2,3-dimethylphenyl)propanoic acid]",0.379,0.667,–
"CC(Cc1cc(F)c(OCc2c(-c3ncc(Cl)cc3F)nsc2C(F)(F)F)c(F)c1)C(=O)O (stereo not drawn) [Cpd 265, 3-(4-{[3-(5-Chloro-3-fluoropyridin-2-yl)-5-(trifluoromethyl)isothiazol-4-yl]methoxy}-3,5-difluorophenyl)-2-methylpropanoic acid]",0.248,0.527,–
"CC(Cc1ccc(OCc2c(-c3ncc(Cl)cc3F)nsc2C(F)(F)F)c(F)c1)C(=O)O (stereo not drawn) [Cpd 266, 3-(4-{[3-(5-Chloro-3-fluoropyridin-2-yl)-5-(trifluoromethyl)isothiazol-4-yl]methoxy}-3-fluorophenyl)-2-methylpropanoic acid]",0.289,0.982,–

# More lines, now with the values ahead:
EC50 (Human GPR120 short form) [µM],EC50 [1] [µM],EC50 [2] [µM],SMILES
0.473,0.445,–,"COc1ncc(-c2nsc(C(F)(F)F)c2COc2ccc(CCC(=O)O)c(C)c2C)s1 [Cpd 268, 3-(4-{[3-(2-Methoxy-1,3-thiazol-5-yl)-5-(trifluoromethyl)isothiazol-4-yl]methoxy}-2,3-dimethylphenyl)propanoic acid]"
3.98,–,–,"O=C(O)CCc1ccc(OCc2c(-c3ccc(Cl)cc3)nsc2C(F)(F)F)cc1C(F)F [Cpd 274, 3-[4-{[3-(4-Chlorophenyl)-5-(trifluoromethyl)isothiazol-4-yl]methoxy}-2-(difluoromethyl)phenyl]propanoic acid]"
1.11,–,–,"Cc1cc(OCc2c(-c3ccc(Cl)cc3)nsc2C(F)(F)F)ccc1CCC(=O)O [Cpd 275, 3-(4-{[3-(4-Chlorophenyl)-5-(trifluoromethyl)isothiazol-4-yl]methoxy}-2-methylphenyl)propanoic acid]"
0.886,–,–,"CC1CC=C(c2snc(Cl)c2COc2ccc(CCC(=O)O)c(C(F)(F)F)c2)CC1 (stereo not drawn) [Cpd 276, 3-[4-{[3-Chloro-5-(4-methylcyclohex-1-en-1-yl)isothiazol-4-yl]methoxy}-2-(trifluoromethyl)phenyl]propanoic acid]"
0.601,–,–,"Cc1ccc(-c2snc(Cl)c2COc2ccc(CCC(=O)O)c(C(C)(F)F)c2)cc1 [Cpd 278, 3-[4-{[3-Chloro-5-(4-methylphenyl)isothiazol-4-yl]methoxy}-2-(1,1-difluoroethyl)phenyl]propanoic acid]"
0.755,–,–,"Cc1ccc(-c2snc(Cl)c2COc2ccc(CCC(=O)O)c(C(C)F)c2)cc1 (stereo not drawn) [Cpd 279, 3-[4-{[3-Chloro-5-(4-methylphenyl)isothiazol-4-yl]methoxy}-2-(1-fluoroethyl)phenyl]propanoic acid]"
